One block for each molecule: values may come before it.
Experiment: Irradiation experiments: photolytic cleavage of the 5' protective group with polychromatic light, followed by HPLC
Format: physicochemical
Conditions: for Concentration Thymidine (released): from 0.2 mM CNPEOC-T; for Relative Quantity Thymidine (released): of 0.2 mM; for Concentration CNPEOC-T: start 0.2 mM; for Relative Quantity CNPEOC-T: 200 µM; for Photolytic cleavage of the 5' protective group in relation to rapidity and high yields: compared with V1 and V2
Experimental: The corresponding protected thymidine nucleosides were irradiated by means of an irradiation apparatus which was composed of a Hg very high pressure lamp (OSRAM HBO, 200 W), a focusing lens, a shutter with an electronic control device for setting the shutter times and a temperature-controlled cuvette holder. A heat filter (0.032 molar CuSO4 solution) between the lamp and sample was also installed. 0.2 mM solutions of the nucleosides in MeOH/H2 O 1:1 were irradiated at 20° to 30° C. with the entire lamp spectrum (polychromatic light with wavelengths of λ>289 nm).
The cleavage of the protective groups was followed quantitatively by HPLC. The HPLC unit comprised of the following devices: Merck-Hitachi L-6200 Intelligent Pump, Merck-Hitachi Intelligent Auto Sampler AS 4000, Merck-Hitachi Interface, Merck Lichrosorb column RP 18, 125×5 mm. The ultra-violet/VIS spectrophotometer was a Kontron UVIKON 730 LC. Detection took place at 260 nm. The integration of the chromatogram signals took place by means of Merck software: D-6000 HPLC Manager.
MeOH/H2 O mixtures were always used for chromatography. The following gradient was used (flow: 1 ml/min)
Calibration curves for thymidine and the protected nucleosides were compiled by injecting dilution series into the chromatograph.
Samples (loop volume: 20 μl) were taken from the irradiated solutions after specific time intervals. Each sample was injected twice into the chromatograph. The mean values of these dual determinations were used for further evaluation. The peak areas of the chromatograms were converted into the concentrations of protected nucleosides or of thymidine by means of the above-compiled calibration curves. The concentration values obtained in this manner were divided by the maximum achievable concentration of 0.2 mM (=concentration of the protected nucleosides at the start of irradiation) and plotted against the irradiation time as a "relative quantity" in percent.
Linear regression yielded: y=4.96777·10^-4 +3.85757 10^-7 ·x with x=peak area and y=thymidine concentration; r=0.9999
Linear regression yielded: y=9.2999·10^-4 +3.22516 10^-7 ·x with x=peak area and y=CNPEOC-T concentration; r=0.9998.
With regard to several other derivatives according to the invention and to the two comparative compounds V1 (5'-O-(2-nitrobenzyloxycarbonyl)thymidine) and V2 (5'-O-(2.4dinitrobenzyloxycarbonyl)thymidine), the following table summarizes their results obtained according to the above method and evaluated in relation to half-life and yield percentage of deprotected nucleoside derivative, in relation to the maximum concentration achievable): […]

[1] = 0.2 mM in MeOH/H2O 1:1, 20° to 30° C., λ>289 nm

Structure (SMILES): Cc1cn([C@H]2C[C@H](O)[C@@H](COC(=O)OCCc3c([N+](=O)[O-])cccc3[N+](=O)[O-])O2)c(=O)[nH]c1=O [Compound 2, 5'-O-(2-(2,6-dinitrophenyl)ethoxycarbonyl)thymidine]
Yield of deprotected nucleoside, in relation to maximum concentration achievable [1]: 92 % Cmax | t0.5 (half-life of photolytic deprotection) [1]: 1.37 min

Structure (SMILES): Cc1cn([C@H]2C[C@H](O)[C@@H](COC(=O)OCC(C)c3ccccc3[N+](=O)[O-])O2)c(=O)[nH]c1=O (some centres unmarked) [Compound 10, 5'-O-(2-(2-nitrophenyl)propoxycarbonyl)thymidine]
Yield of deprotected nucleoside, in relation to maximum concentration achievable [1]: 89 % Cmax | Photolytic cleavage of the 5' protective group in relation to rapidity and high yields: clearly superior | t0.5 (half-life of photolytic deprotection) (meoh/h2o 1:1, 200 µM): 0.7 min

Structure (SMILES): Cc1cn([C@H]2C[C@H](O)[C@@H](COC(=O)OCC(Cl)c3ccccc3[N+](=O)[O-])O2)c(=O)[nH]c1=O (some centres unmarked) [Compound 11, 5'-O-(2-chloro-2-(2-nitrophenyl)ethoxycarbonyl)thymidine]
Yield of deprotected nucleoside, in relation to maximum concentration achievable [1]: 97 % Cmax | Photolytic cleavage of the 5' protective group in relation to rapidity and high yields: clearly superior | t0.5 (half-life of photolytic deprotection) (meoh/h2o 1:1, 200 µM): 1.46 min

Structure (SMILES): Cc1cn([C@H]2C[C@H](O)[C@@H](COC(=O)OCc3ccccc3[N+](=O)[O-])O2)c(=O)[nH]c1=O [Compound V1, 5'-O-(2-nitrobenzyloxycarbonyl)thymidine, reference compound]
Yield of deprotected nucleoside, in relation to maximum concentration achievable [1]: 55 % Cmax | t0.5 (half-life of photolytic deprotection) (meoh/h2o 1:1, 200 µM): 2.5 min

Structure (SMILES): Cc1cn([C@H]2C[C@H](O)[C@@H](COC(=O)OCc3ccc([N+](=O)[O-])cc3[N+](=O)[O-])O2)c(=O)[nH]c1=O [Compound V2, 5'-O-(2.4dinitrobenzyloxycarbonyl)thymidine, reference compound]
Yield of deprotected nucleoside, in relation to maximum concentration achievable [1]: 38 % Cmax | t0.5 (half-life of photolytic deprotection) [1]: 3.3 min

Continued, values first:

Yield of deprotected nucleoside, in relation to maximum concentration achievable [1]: 79 % Cmax | t0.5 (half-life of photolytic deprotection) (meoh/h2o 1:1, 200 µM): 2.6 min
Structure (SMILES): Cc1cn([C@H]2C[C@H](O)[C@@H](COC(=O)OCCc3ccccc3[N+](=O)[O-])O2)c(=O)[nH]c1=O [Compound 1, 5'-O-(2-(2-nitrophenyl)ethoxycarbonyl)thymidine]

Yield of deprotected nucleoside, in relation to maximum concentration achievable [1]: 86 % Cmax | Concentration Thymidine (released) (irradiation time 1 min): 32.7 µM | Relative Quantity Thymidine (released) (irradiation time 1 min): 16.3% | Concentration CNPEOC-T (irradiation time 1 min): 148.9 µM | Concentration Thymidine (released) (irradiation time 2 min): 85.8 µM | Relative Quantity Thymidine (released) (irradiation time 2 min): 42.9% | Concentration CNPEOC-T (irradiation time 2 min): 82.6 µM | Concentration Thymidine (released) (irradiation time 3 min): 88.8 µM | Relative Quantity Thymidine (released) (irradiation time 3 min): 44.4% | Concentration CNPEOC-T (irradiation time 3 min): 81.9 µM | Concentration Thymidine (released) (irradiation time 5 min): 127.8 µM | Relative Quantity Thymidine (released) (irradiation time 5 min): 63.9% | Concentration CNPEOC-T (irradiation time 5 min): 28.1 µM | Concentration Thymidine (released) (irradiation time 15 min): 167.3 µM | Relative Quantity Thymidine (released) (irradiation time 15 min): 83.7% | Concentration CNPEOC-T (irradiation time 15 min): 8.8 µM | Concentration Thymidine (released) (irradiation time 30 min): 169.3 µM | Relative Quantity Thymidine (released) (irradiation time 30 min): 84.6% | Concentration CNPEOC-T (irradiation time 30 min): 0 µM | Concentration Thymidine (released) (irradiation time 60 min): 171.1 µM | Relative Quantity Thymidine (released) (irradiation time 60 min): 85.5% | Concentration CNPEOC-T (irradiation time 60 min): 0 µM | Concentration Thymidine (released) (irradiation time 120 min): 157.7 µM | Relative Quantity Thymidine (released) (irradiation time 120 min): 78.9% | Concentration CNPEOC-T (irradiation time 120 min): 0 µM | t0.5 (half-life of photolytic deprotection) (meoh/h2o 1:1, 200 µM): 1.71 min | Relative Quantity CNPEOC-T (meoh/h2o 1:1, 1 min): 74.5% | Relative Quantity CNPEOC-T (meoh/h2o 1:1, 2 min): 41.3% | Relative Quantity CNPEOC-T (meoh/h2o 1:1, 0.05 h): 40.9% | Relative Quantity CNPEOC-T (meoh/h2o 1:1, 5 min): 14.0% | Relative Quantity CNPEOC-T (meoh/h2o 1:1, 0.25 h): 4.4% | Relative Quantity CNPEOC-T (meoh/h2o 1:1, 0.5 h): 0% | Relative Quantity CNPEOC-T (meoh/h2o 1:1, 1 h): 0% | Relative Quantity CNPEOC-T (meoh/h2o 1:1, 2 h): 0%
Structure (SMILES): Cc1cn([C@H]2C[C@H](O)[C@@H](COC(=O)OCCc3c(Cl)cccc3[N+](=O)[O-])O2)c(=O)[nH]c1=O [Compound 4, 5'-O-(2-(2-chloro-6-nitrophenyl)ethoxycarbonyl)thymidine]

Yield of deprotected nucleoside, in relation to maximum concentration achievable [1]: 89 % Cmax | t0.5 (half-life of photolytic deprotection) (meoh/h2o 1:1, 200 µM): 1.71 min
Structure (SMILES): Cc1cn([C@H]2C[C@H](O)[C@@H](COC(=O)OCCc3c(Br)cccc3[N+](=O)[O-])O2)c(=O)[nH]c1=O [Compound 5, 5'-O-(2-(2-bromo-6-nitrophenyl)ethoxycarbonyl)thymidine]

Yield of deprotected nucleoside, in relation to maximum concentration achievable [1]: 70 % Cmax | t0.5 (half-life of photolytic deprotection) (meoh/h2o 1:1, 200 µM): 2.3 min
Structure (SMILES): Cc1cn([C@H]2C[C@H](O)[C@@H](COC(=O)OCCc3ccc(Cl)cc3[N+](=O)[O-])O2)c(=O)[nH]c1=O [Compound 6, 5'-O-(2-(4-chloro-2-nitrophenyl)ethoxycarbonyl)thymidine]

Yield of deprotected nucleoside, in relation to maximum concentration achievable [1]: 77 % Cmax | t0.5 (half-life of photolytic deprotection) (meoh/h2o 1:1, 200 µM): 1.68 min
Structure (SMILES): Cc1cn([C@H]2C[C@H](O)[C@@H](COC(=O)OCCc3c(Cl)cc(Cl)cc3[N+](=O)[O-])O2)c(=O)[nH]c1=O [Compound 8, 5'-O-(2-(2,4-dichloro-6-nitrophenyl)ethoxycarbonyl)thymidine]

Yield of deprotected nucleoside, in relation to maximum concentration achievable [1]: 77 % Cmax | t0.5 (half-life of photolytic deprotection) (meoh/h2o 1:1, 200 µM): 7.2 min
Structure (SMILES): COc1cc(CCOC(=O)OC[C@H]2O[C@@H](n3cc(C)c(=O)[nH]c3=O)C[C@@H]2O)c([N+](=O)[O-])cc1OC [Compound 9, 5'-O-(2-(4,5-dimethoxy-2-nitrophenyl)ethoxycarbonyl)thymidine]

Source: patent publication US5763599A, “Nucleoside derivatives with photolabile protective groups” (Pfleiderer; Wolfgang, priority 1994, dated 1998)
